# Key:
# [1] = biological target: T1, CYP11B1 (Homo sapiens, UniProt P15538); test: In vitro CYP11B1 inhibition in NCI-H295R cells (steroid release, radioimmunoassay); format: cell-based; conditions: I %: percentage of inhibition; for inhibition at 0.1 µM: NCI-H295R, 100 nM
# T1 construct: Thus, the NCI-H295R cells have Cyp11 B1 (steroid 11 p-hydroxylase); host or cells: NCI-H295R
# T1 sequence (P15538 25-503): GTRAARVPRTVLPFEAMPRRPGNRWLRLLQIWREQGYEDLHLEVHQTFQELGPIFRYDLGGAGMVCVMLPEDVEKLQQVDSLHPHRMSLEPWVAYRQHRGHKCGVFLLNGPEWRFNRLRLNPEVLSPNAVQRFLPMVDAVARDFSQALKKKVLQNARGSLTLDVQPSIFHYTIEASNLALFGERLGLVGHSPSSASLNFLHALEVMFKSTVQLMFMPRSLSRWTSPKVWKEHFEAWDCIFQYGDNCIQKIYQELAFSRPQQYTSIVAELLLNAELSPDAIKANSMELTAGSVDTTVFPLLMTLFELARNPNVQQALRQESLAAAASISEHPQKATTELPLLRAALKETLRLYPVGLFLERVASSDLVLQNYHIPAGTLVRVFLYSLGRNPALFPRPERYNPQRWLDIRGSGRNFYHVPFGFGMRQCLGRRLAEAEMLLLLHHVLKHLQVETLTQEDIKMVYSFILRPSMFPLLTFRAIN
# Source text: The in vitro inhibitory activities for CYP11B1 can be determined by the following assay.
# The cell line NCI-H295R was originally isolated from an adrenocortical carcinoma and has been characterized in the literature through the stimulable secretion of steroid hormones and the presence of the enzymes essential for steroidogenesis. Thus, the NCI-H295R cells have Cyp11 B1 (steroid 11 p-hydroxylase). The cells show the physiological property of zonally undifferentiated human foetal adrenocortical cells which, however, have the capacity to produce the steroid hormones which are formed in the three, phenotypically distinguishable zones in the adult adrenal cortex. The NCI-H295R cells (American Type Culture Collection, ATCC, Rockville, Md., USA) are grown in Dulbeoco's Modified Eagle'Ham F-12 Medium (DME/F12), which has been I supplemented with Ulroser SF Serum(Soprachem, Cergy-Saint-Christophe, France), insulin, transferrin, selenite (1-T-S, Becton Dickinson Biosiences, Franklin lakes, NJ, USA) and antibiotics in 75 cm^2 cell culture vessels at 37° C. and in a 95% air-5% carbon dioxide atmosphere. The cells are subsequently transferred for colony formation into a 24-well incubation vessel. They are cultivated there in DME/F12 medium, which is now supplemented with 0.1% bovine serum instead of Ultroser SF for 24 hours. The experiment is initiated by cultivating the cells in DME/F12 medium which is supplemented with 0.1% bovine serum albumin and test compound, in the presence or absence of cell stimulants, for 72 hours. The test substance is added in a concentration range from 0.2 nanomolar to […]. Cell stimulants which can be used are angiotensin 11 ([…] or 100 nanomolar), potassium ions (16 millimolar), forskolin (10 micromolar) or a combination of two stimulants.
# The excretion of aldosterone, cortisol, corticosterone and estradiol/estrone into the culture medium can be detected and quantified by commercially available, specific monoclonal antibodies in radioimmunoassays in accordance with the manufacturers instructions.
# Inhibition of the release of certain steroids can be used as a measure of the respective enzyme inhibition by the added test compounds. The dose-dependent inhibition of enzymic activity by a compound is calculated by means of an inhibition plot which is characterized by an IC50.
# The IC50 values for active test compounds are ascertained by a simple linear regression analysis in order to construct inhibition plots without data weighting. The inhibition plot is calculated by fitting a 4-parameter logistic function to the raw data points using the least squares method. The equation of the 4-parameter logistic function is calculated as follows: Y=(d−a)/((1+(x/c)b))+a I where: a=minimum data level b=gradient I c=ICED, d=maximum data level x=inhibitor concentration.
# [2] = biological target: T2, aldosterone synthase (CYP11B2) (Homo sapiens, UniProt P19099); test: In vitro aldosterone synthase inhibition: cellular aldosterone production in Ang II-stimulated NCI-H295R cells; format: cell-based; conditions: 1 μM Ang II, 24 hr
# T2 construct: host or cells: NCI-H295R
# T2 sequence (P19099 25-503): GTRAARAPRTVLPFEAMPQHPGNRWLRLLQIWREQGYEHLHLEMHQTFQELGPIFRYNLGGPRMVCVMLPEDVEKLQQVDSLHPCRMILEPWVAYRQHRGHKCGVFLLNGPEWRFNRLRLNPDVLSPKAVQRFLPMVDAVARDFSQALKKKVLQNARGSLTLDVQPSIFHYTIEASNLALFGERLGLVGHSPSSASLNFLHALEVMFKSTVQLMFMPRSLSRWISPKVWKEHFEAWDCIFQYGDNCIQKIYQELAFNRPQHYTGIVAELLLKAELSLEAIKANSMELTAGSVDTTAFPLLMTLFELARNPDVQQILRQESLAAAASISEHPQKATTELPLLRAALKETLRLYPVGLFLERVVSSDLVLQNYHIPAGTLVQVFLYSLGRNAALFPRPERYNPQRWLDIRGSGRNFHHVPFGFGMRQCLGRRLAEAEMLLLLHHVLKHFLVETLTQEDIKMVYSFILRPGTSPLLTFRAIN
# Source text: In particular, the aldosterone synthase inhibitory activities in vitro can be determined by the following assay.
# Human adrenocortical carcinoma NCI-H295R cell line is obtained from American Type Culture Collection (Manassas, Va.). Insulin/transferrin/selenium (ITS)-A supplement (100×), DMEM/F-12, antibiotic/antimycotic (100×), and fetal calf serum (FCS) are purchased from Gibco (Grand Island, N.Y.). Anti-mouse PVT scintillation proximity assay (SPA) beads and NBS 96-well plates are obtained from Amersham (Piscataway, N.J.) and Corning (Acton, Mass.), respectively. Solid black 96-well flat bottom plates are purchased from Costar (Corning, N.Y.). Aldosterone and angiotensin (Ang II) are purchased from Sigma (St. Louis, Mo.). D-[1,2,6,7-^3H(N)]aldosterone is acquired from PerkinElmer (Boston, Mass.). Nu-serum is a product of BD Biosciences (Franklin Lakes, N.J.).
# For in vitro measurement of aldosterone activity, human adrenocortical carcinoma NCI-H295R cells are seeded in NBS 96-well plates at a density of 25,000 cells/well in 100 μl of a growth medium containing DMEM/F12 supplemented with 10% FCS, 2.5% Nu-serum, 1 μg ITS/ml, and 1× antibiotic/antimycotic. The medium is changed after culturing for 3 days at 37° C. under an atmosphere of 5% CO2/95% air. On the following day, cells are rinsed with 100 μl of DMEM/F12 and incubated with 100 μl of treatment medium containing 1 μM Ang II and a compound at different concentrations in quadruplicate wells at 37° C. for 24 hr. At the end of incubation, 50 μl of medium is withdrawn from each well for measurement of aldosterone production by an RIA using mouse anti-aldosterone monoclonal antibodies.
# Measurement of aldosterone activity can also be performed using a 96-well plate format. Each test sample is incubated with 0.02 μCi of D-[1,2,6,7-^3H(N)]aldosterone and 0.3 μg of anti-aldosterone antibody in phosphate-buffered saline (PBS) containing 0.1% Triton X-100, 0.1% bovine serum albumin, and 12% glycerol in a total volume of 200 μl at room temperature for 1 hr. Anti-mouse PVT SPA beads (50 μl) are then added to each well and incubated overnight at room temperature prior to counting in a Microbeta plate counter. The amount of aldosterone in each sample is calculated by comparing with a standard curve generated using known quantities of the hormone.
Compound,inhibition at 0.1 µM [1] [%],IC50 [2] [nM],melting point [°C],CYP11B1 % I (100 nM) [1] [%]
"COC(=O)c1cncn1C1c2ccccc2C(=O)N(C)C1(C)C (racemic) [Entry 11, 3-(2,3,3-trimethyl-1-oxo-1,2,3,4-tetrahydro-isoquinolin-4-yl)-3H-imidazole-4-carboxylic acid methyl ester]",95,73,,
"CC1(C)OC(=O)c2ccccc2C1n1cncc1C(=O)Oc1ccccc1 (single isomer, unassigned) [Entry 3, 3-(3,3-dimethyl-1-oxo-isochroman-4-yl)-3H-imidazole-4-carboxylic acid phenyl ester]",97,3,,
"CCc1cncn1C1c2ccccc2C(=O)OC12CCC2 (stereo not shown) [Example 1(f), [4-(5-ethyl-imidazol-1-yl)-isochroman-1-one]-3-spirocyclobutane]",,,178 to 179,
"Cc1noc(-c2cncn2C2c3ccccc3C(=O)OC2(C)C)n1 (racemic) [Entry 4, 3,3-dimethyl-4-[5-(3-methyl-[1,2,4]oxadiazol-5-yl)imidazol-1-yl]-isochroman-1-one]",100,187,,
"CCc1cncn1C1c2ccccc2C(=O)OC12CCC2 (single isomer, unassigned) [Entry 9, [4-(5-ethyl-imidazol-1-yl)-isochroman-1-one]-3-spirocyclobutane]",100,7,,
"C=Cc1cncn1C1c2ccccc2C(=O)OC1(C)C (single isomer, unassigned) [Entry 7, 4-(5-vinyl-imidazol-1-yl)-3,3-dimethyl-isochroman-1-one]",100,22,,
"COC(=O)c1cncn1C1c2ccccc2C(=O)N(C2CC2)C1(C)C (racemic) [Entry 12, 3-(2-cyclopropyl-3,3-dimethyl-1-oxo-1,2,3,4-tetrahydro-isoquinolin-4-yl)-3H-imidazole-4-carboxylic acid methyl ester]",77,530,,
"3-(3,3-dimethyl-1-oxo-isochroman-4-yl)-3H-imidazole-4-carbaldehyde oxime (trans) [Entry 5]",,47,,97
"CCc1cncn1C1c2ccccc2C(=O)OC12CCOCC2 (racemic) [Entry 10, [4-(5-ethyl-imidazol-1-yl)-isochroman-1-one]-3-spiro(4-tetrahydropyran)]",90,314,,

# Now from value to compound, other results behind:
inhibition at 0.1 µM [1] [%],IC50 [2] [nM],melting point [°C],Compound,CYP11B1 % I (100 nM) [1] [%]
100,6,,"CCCCc1cncn1C1c2ccccc2C(=O)OC1(C)C (racemic) [Entry 6, 4-(5-butyl-imidazol-1-yl)-3,3-dimethyl-isochroman-1-one]",
100,17,,"CCOCc1cncn1C1c2ccccc2C(=O)OC1(C)C (single isomer, unassigned) [Entry 8, 4-(5-ethoxymethyl-imidazol-1-yl)-3,3-dimethyl-isochroman-1-one]",
94,3,,"CCOC(=O)c1cncn1C1c2ccccc2C(=O)OC1(C)C (single isomer, unassigned) [Entry 2, 3-(3,3-dimethyl-1-oxo-isochroman-4-yl)-3H-imidazole-4-carboxylic acid ethyl ester]",
100,24,,"COC(=O)c1cncn1C1c2ccccc2C(=O)OC1(C)C (single isomer, unassigned) [Entry 1, 3-(3,3-dimethyl-1-oxo-isochroman-4-yl)-3H-imidazole-4-carboxylic acid methyl ester]",

# Reference: patent publication US8153674B2, “Organic compounds” (Novartis AG, priority 2006, dated 2012)
